Laboratory results reported in US8987195B2 (priority 2012, dated 2015).
Read-outs that look alike come from different tables or passages of the source.

Key:
[1] = biological target: HCV NS3/4A protease genotype 1b (Hepatitis C virus genotype 1b, UniProt P26663); experiment: HCV NS3/4A protease time-resolved fluorescence (TRF) assay, Ki against genotype 1b; format: biochemical; details: IC50 [gt-1b], NS3/4A protease TRF assay, genotype 1b enzyme 0.2 nM
In short: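 NS3/4A enzyme was preincubated 30 min with inhibitor in 50 mM HEPES pH 7.5, 150 mM NaCl, 15% glycerol, 0.15% Triton X-100, 10 mM DTT, 0.1% PEG 8000; 25 nM europium TRF peptide substrate added, 2.5 h at room temperature. Enzyme: 0.2 nM (1b), 0.4 nM (A156T), 0.025 nM (3a). Ki from IC50 via Cheng-Prusoff.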

HCV genotype 1b replicon = experiment: HCV replicon assay, genotype 1b replicon EC50; format: cell-based, Hepatitis C virus; details: Hepatitis C virus, HCV replicon, genotype 1b, read-out: EC50 [gt-1b]
In short: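 Stable neomycin phosphotransferase-encoding replicon cell lines, kept under G418 selection beforehand, were plated with a compound dilution series without G418 and incubated 24-48 hours. Replicon RNA was then quantified, or luciferase activity read. EC50 was calculated as percent of DMSO control by four-parameter fit.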

| Structure (SMILES) | IC50 [1] [nM] | EC50 (HCV genotype 1b replicon) [nM] | IC50 ([1]; K+ salt) [nM] | EC50 (HCV genotype 1b replicon; K+ salt) [nM] |
| --- | --- | --- | --- | --- |
| COCCCOc1ccc2nc(C)c3c(c2c1)CC[C@]1(C[C@H]2C(=O)N[C@]4(C(=O)NS(=O)(=O)C5(C)CC5)C[C@H]4/C=C\CCCCC[C@H](NC(=O)OCC(C)(C)C)C(=O)N2C1)O3 [Example 453, 2,2-dimethylpropyl [(2R,6S,12Z,13aS,14aR,16aS)-9′-(3-methoxypropoxy)-5′-methyl-14a-{[(1-methylcyclopropyl)sulfonyl]carbamoyl}-5,16-dioxo-1,1′,2′,5,6,7,8,9,10,11,13a,14,14a,15,16,16a-hexadecahydrospiro[cyclopropa[e]pyrrolo[1,2-a][1,4]diazacyclopentadecine-2,3′-pyrano[2,3-c]quinolin]-6-yl]carbamate] | 0.017 | 1.78 |  |  |
| COc1ccc2nc(C3CC3)c3c(c2c1)[C@H](F)C[C@]1(C[C@H]2C(=O)N[C@]4(C(=O)NS(=O)(=O)C5(C)CC5)C[C@H]4/C=C\CCCCC[C@H](NC(=O)OCC(C)C)C(=O)N2C1)O3 [Example 454, 2-methylpropyl [(1′R,2S,6S,12Z,13aS,14aR,16aS)-5′-cyclopropyl-1′-fluoro-9′-methoxy-14a-{[(1-methylcyclopropyl)sulfonyl]carbamoyl}-5,16-dioxo-1,1′,2′,5,6,7,8,9,10,11,13a,14,14a,15,16,16a-hexadecahydrospiro[cyclopropa[e]pyrrolo[1,2-a][1,4]diazacyclopentadecine-2,3′-pyrano[2,3-c]quinolin]-6-yl]carbamate] |  |  | 0.024 | 1.38 |
| COc1ccc2nc(C3CC3)c3c(c2c1)[C@H](F)C[C@]1(C[C@H]2C(=O)N[C@]4(C(=O)NS(=O)(=O)C5(C)CC5)C[C@H]4/C=C\CCCCC[C@H](NC(=O)OCC(C)(C)C)C(=O)N2C1)O3 [Example 455, 2,2-dimethylpropyl [(1′R,2S,6S,12Z,13aS,14aR,16aS)-5′-cyclopropyl-1′-fluoro-9′-methoxy-14a-{[(1-methylcyclopropyl)sulfonyl]carbamoyl}-5,16-dioxo-1,1′,2′,5,6,7,8,9,10,11,13a,14,14a,15,16,16a-hexadecahydrospiro[cyclopropa[e]pyrrolo[1,2-a][1,4]diazacyclopentadecine-2,3′-pyrano[2,3-c]quinolin]-6-yl]carbamate] |  |  | 0.04 | 1.55 |
| COc1ccc2nc(C3CC3)c3c(c2c1)[C@H](F)C[C@]1(C[C@H]2C(=O)N[C@]4(C(=O)NS(=O)(=O)C5(C)CC5)C[C@H]4/C=C\CCCCC[C@H](NC(=O)OC(C)C)C(=O)N2C1)O3 [Example 456, propan-2-yl [(1′R,2S,6S,12Z,13aS,14aR,16aS)-5′-cyclopropyl-1′-fluoro-9′-methoxy-14a-{[(1-methylcyclopropyl)sulfonyl]carbamoyl}-5,16-dioxo-1,1′,2′,5,6,7,8,9,10,11,13a,14,14a,15,16,16a-hexadecahydrospiro[cyclopropa[e]pyrrolo[1,2-a][1,4]diazacyclopentadecine-2,3′-pyrano[2,3-c]quinolin]-6-yl]carbamate] |  |  | 0.021 | 1.41 |
| COc1ccc2nc(C3CC3)c3c(c2c1)[C@H](F)C[C@]1(C[C@H]2C(=O)N[C@]4(C(=O)NS(=O)(=O)C5(C)CC5)C[C@H]4/C=C\CCCCC[C@H](NC(=O)O[C@H](C)C(C)C)C(=O)N2C1)O3 [Example 457, (2R)-3-methylbutan-2-yl [(1′R,2S,6S,12Z,13aS,14aR,16aS)-5′-cyclopropyl-1′-fluoro-9′-methoxy-14a-{[(1-methylcyclopropyl)sulfonyl]carbamoyl}-5,16-dioxo-1,1′,2′,5,6,7,8,9,10,11,13a,14,14a,15,16,16a-hexadecahydrospiro[cyclopropa[e]pyrrolo[1,2-a][1,4]diazacyclopentadecine-2,3′-pyrano[2,3-c]quinolin]-6-yl]carbamate] |  |  | 0.068 | 1.17 |
| CC(C)(C)OC(=O)N[C@H]1CCCCC/C=C\[C@@H]2C[C@@]2(C(=O)NS(=O)(=O)C2(C)CC2)NC(=O)[C@@H]2C[C@]3(CCc4c(c(C(F)(F)F)nc5ccc(OCF)cc45)O3)CN2C1=O [Example 458, tert-butyl [(2R,6S,12Z,13aS,14aR,16aS)-9′-(fluoromethoxy)-14a-{[(1-methylcyclopropyl)sulfonyl]carbamoyl}-5,16-dioxo-5′-(trifluoromethyl)-1,1′,2′,5,6,7,8,9,10,11,13a,14,14a,15,16,16a-hexadecahydrospiro[cyclopropa[e]pyrrolo[1,2-a][1,4]diazacyclopentadecine-2,3′-pyrano[2,3-c]quinolin]-6-yl]carbamate] | 0.015 | 1.43 |  |  |
| COc1ccc2nc(C(F)(F)F)c3c(c2c1)[C@H](F)C[C@]1(C[C@H]2C(=O)N[C@]4(C(=O)NS(=O)(=O)C5(C)CC5)C[C@H]4/C=C\CCCCC[C@H](NC(=O)OCC(C)(C)C)C(=O)N2C1)O3 [Example 462, 2,2-dimethylpropyl [(1′R,2S,6S,12Z,13aS,14aR,16aS)-1′-fluoro-9′-methoxy-14a-{[(1-methylcyclopropyl)sulfonyl]carbamoyl}-5,16-dioxo-5′-(trifluoromethyl)-1,1′,2′,5,6,7,8,9,10,11,13a,14,14a,15,16,16a-hexadecahydrospiro[cyclopropa[e]pyrrolo[1,2-a][1,4]diazacyclopentadecine-2,3′-pyrano[2,3-c]quinolin]-6-yl]carbamate] | 0.036 | 5.75 |  |  |
| COc1ccc2nc(C)c3c(c2c1)CC[C@]1(C[C@H]2C(=O)N[C@]4(C(=O)NS(=O)(=O)C5(C)CC5)C[C@H]4/C=C\CCCCC[C@H](Nc4cccc(C)n4)C(=O)N2C1)O3 [Example 463, (2R,6S,12Z,13aS,14aR,16aS)-9′-methoxy-5′-methyl-N-[(1-methylcyclopropyl)sulfonyl]-6-[(6-methylpyridin-2-yl)amino]-5,16-dioxo-1,1′,2′,6,7,8,9,10,11,13a,14,15,16,16a-tetradecahydrospiro[cyclopropa[e]pyrrolo[1,2-a][1,4]diazacyclopentadecine-2,3′-pyrano[2,3-c]quinoline]-14a(5H)-carboxamide] | 0.057 | 2.16 |  |  |
| Cc1nc2cc(F)ccc2c2c1OC1(CC2F)C[C@H]2C(=O)N[C@]3(C(=O)NS(=O)(=O)C4(C)CC4)C[C@H]3/C=C\CCCCC[C@H](NC(=O)OC(C)(C)C)C(=O)N2C1 (stereo partly drawn) [Example 464, tert-butyl [(6S,12Z,13aS,14aR,16aS)-1′,8′-difluoro-5′-methyl-14a-{[(1-methylcyclopropyl)sulfonyl]carbamoyl}-5,16-dioxo-1,1′,2′,5,6,7,8,9,10,11,13a,14,14a,15,16,16a-hexadecahydrospiro[cyclopropa[e]pyrrolo[1,2-a][1,4]diazacyclopentadecine-2,3′-pyrano[2,3-c]quinolin]-6-yl]carbamate] | 1.03 | 15 |  |  |
| CCc1nc2ccc(OC)cc2c2c1O[C@]1(CC2)C[C@H]2C(=O)N[C@]3(C(=O)NS(=O)(=O)C4(C)CC4)C[C@H]3/C=C\CCCCC[C@H](NC(=O)c3ccc(C)s3)C(=O)N2C1 [Example 466, (2R,6S,12Z,13aS,14aR,16aS)-5′-ethyl-9′-methoxy-N-[(1-methylcyclopropyl)sulfonyl]-6-{[(5-methylthiophen-2-yl)carbonyl]amino}-5,16-dioxo-1,1′,2′,6,7,8,9,10,11,13a,14,15,16,16a-tetradecahydrospiro[cyclopropa[e]pyrrolo[1,2-a][1,4]diazacyclopentadecine-2,3′-pyrano[2,3-c]quinoline]-14a(5H)-carboxamide] | 0.041 | 1.62 |  |  |
